Columns and labels:
Escherichia coli WP2uvrA = assay: Ames test (reverse mutation test), WP2uvrA; format: cell-based; details: without S9 mix, 0.01 μg/plate, positive control
Description: (§1) Metabolite 1 and Metabolite C were each tested herein.
(§2) Two plates per treatment were used.

glucose-loaded SD rats [1] = assay: OGTT (Oral Glucose Tolerance Test), Test Example 2; format: in vivo; details: male SD rat, 1, 3, or 10 mg/kg orally, glucose load after 16 hours, to 120 minutes, compared to vehicle
Method: Vehicle (0.5% methylcellulose solution) or Compound 1 (1, 3, or 10 mg/kg) suspended in a 0.5% methylcellulose solution was orally administered in 5 mL/kg to an about 4-hour-fasted male SD rat (8-week old, Nihon Charles River K.K., 6 cases for each group).
Statistical analyses were based on Steel's multiple test. The significance level was two-sided 5%.

glucose-loaded SD rats [2] = assay: OGTT (Oral Glucose Tolerance Test), Test Example 3; format: in vivo; details: male SD rat, 3 mg/kg orally, glucose load after 16 hours, to 120 minutes, compared to vehicle
Method: Vehicle (0.5% methylcellulose solution) or Compound 1, Compound A, or Compound B (3 mg/kg each) suspended in a 0.5% methylcellulose solution was orally administered in 5 mL/kg to an about 4-hour-fasted male SD rat (8-week old, Nihon Charles River K.K., 5 cases for each group).
Statistical analyses were based on Dunnett's multiple group test. The significance level was two-sided 5%.

[3] = system: Salmonella typhimurium TA98; assay: Ames test (reverse mutation test), TA98; format: cell-based; details: TA98 with S9 mix
Description: as §1, §2

[4] = system: Salmonella typhimurium TA100; assay: Ames test (reverse mutation test), TA100; format: cell-based; details: TA100 with S9 mix
Description: as §1, §2

[5] = system: Salmonella typhimurium (TA98, TA1537, TA100, and TA1535) and Escherichia coli (WP2uvrA); assay: Ames test (reverse mutation test), all tester strains: overall conclusion and precipitation; format: cell-based; set-up: key to Precipitation: * Growth inhibition; †: Precipitation
Description: as §1, §2

[6] = system: Salmonella typhimurium TA1535; assay: Ames test (reverse mutation test), TA1535; format: cell-based; details: TA1535, with S9 mix, 2.0 μg/plate, positive control
Description: as §1, §2

SMILES: NC(=O)C(=Cc1ccc([N+](=O)[O-])o1)c1ccco1 [AF-2, 2-(2-Furyl)-3-(5-nitro-2-furyl)acrylamide]
- Number of revertant colonies (Escherichia coli WP2uvrA; Table 4): 69
- Number of revertant colonies (Escherichia coli WP2uvrA; Table 7): 74

SMILES: C[C@H]1C(=O)NC[C@@H]1C(=O)Nc1cc(-c2cc(F)cc(OC(C)(C)C)c2)n(C(F)(F)F)n1 [Compound 1, (3R,4R)—N-(5-(3-(tert-butoxy)-5-fluorophenyl)-1-(trifluoromethyl)-1H-pyrazol-3-yl)-4-methyl-5-oxopyrrolidine-3-carboxamide]
- blood glucose level after the glucose load (Δ AUC, % of Vehicle) (glucose-loaded SD rats [1]): significantly reduced the blood glucose level
- blood glucose level after the glucose load (A AUC, % of Vehicle) (glucose-loaded SD rats [2]): significantly reduced the blood glucose level

SMILES: CC(C)(C)Oc1cccc(-c2cc(N)nn2-c2ccccc2)c1 [Metabolite C]
- potential to induce reverse mutations [3]: had potential to induce reverse mutations
- potential to induce reverse mutations [4]: had potential to induce reverse mutations
- Precipitation ([5]; with S9 mix, 556 μg/plate, Table 6 (TA1537, TA1535, WP2uvrA)): †
- Precipitation ([5]; with S9 mix, 1667 μg/plate, Table 6 (TA1537, TA1535, WP2uvrA)): †
- Precipitation ([5]; with S9 mix, 5000 μg/plate, Table 6 (TA1537, TA1535, WP2uvrA)): †
- Precipitation ([5]; without S9 mix, 556 μg/plate, Table 7 (all five strains)): †
- Precipitation ([5]; without S9 mix, 1667 μg/plate, Table 7 (all five strains)): †
- Precipitation ([5]; without S9 mix, 5000 μg/plate, Table 7 (all five strains)): †

SMILES: CC(C)(C)Oc1cc(F)cc(-c2cc(N)nn2C(F)(F)F)c1 [Metabolite 1]
- potential to induce reverse mutations ([5]; any of the bacterial tester strains, presence or absence of S9 mix): did not have potential to induce reverse mutations
- Precipitation ([5]; with S9 mix, 556 μg/plate, Table 1 (TA98, TA100)): †
- Precipitation ([5]; with S9 mix, 1667 μg/plate, Table 1 (TA98, TA100)): †
- Precipitation ([5]; with S9 mix, 5000 μg/plate, Table 1 (TA98, TA100)): †
- Precipitation ([5]; with S9 mix, 5000 μg/plate, Table 2 (TA1537, TA1535, WP2uvrA)): †
- Precipitation ([5]; without S9 mix, 5000 μg/plate, Table 4 (all five strains)): †

SMILES: Nc1ccc2cc3ccccc3cc2c1 [Compound 2AA, 2-Aminoanthracene]
- Number of revertant colonies ([6]; Table 2): 223
- Number of revertant colonies ([6]; Table 6): 250
